Structures can show the parent of a compound that is named as a salt. Where two headings read alike, the source gives them in different places.
Columns and labels:
[1] = test system: Experimental Autoimmune Encephalomyelitis (EAE); assay: EAE studies (Experimental Autoimmune Encephalomyelitis); type: in vivo, mice of the C57BL/6 (B6) strain; details: orally twice a day from day 0; for EAE onset and clinical score: effect starting at 3, 10 or 30 mg/kg; for EAE onset: 30 mg/kg
[2] = target: T1, Human RORγ Ligand Binding Domain (RORγ-LBD) (Homo sapiens, UniProt P51449); assay: Dual Fluorescence Energy Transfer (FRET) assay, RORγ-LBD / SRC1(2) co-activator peptide interaction; type: biochemical; details: mean of multiple test results if tested more than once; read-out: pIC50 in the dual FRET assay (converted)
T1 construct: made in house; host or cells: E. coli BL21(DE3), modified pET21a
T1 sequence (P51449 263-518): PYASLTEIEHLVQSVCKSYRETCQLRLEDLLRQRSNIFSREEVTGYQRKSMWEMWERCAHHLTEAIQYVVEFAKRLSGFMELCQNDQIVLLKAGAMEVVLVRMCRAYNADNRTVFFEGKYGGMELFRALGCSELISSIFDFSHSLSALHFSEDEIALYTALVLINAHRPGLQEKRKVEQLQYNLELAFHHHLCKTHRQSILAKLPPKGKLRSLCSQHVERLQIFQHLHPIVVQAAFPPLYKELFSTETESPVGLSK
Excerpt: This assay is based on the knowledge that nuclear receptors interact with cofactors (transcription factors) in a ligand dependent manner. RORγ is a typical nuclear receptor in that it has an AF2 domain in the ligand binding domain (LBD) which interacts with co-activators.
The assay measures ligand-mediated interaction of the co-activator peptide with the purified bacterial-expressed RORγ ligand binding domain (RORγ-LBD) to indirectly assess ligand binding. RORγ has a basal level of interaction with the co-activator SRC1(2) in the absence of ligand, thus it is possible to find ligands that inhibit or enhance the RORγ/SRC1(2) interaction.
Human RORγ Ligand Binding Domain (RORγ-LBD) was expressed in E.coli strain BL21(DE3) as an amino-terminal polyhistidine tagged fusion protein. DNA encoding this recombinant protein was sub-cloned into a modified pET21a expression vector (Novagen).
Approximately 50 g E. coli cell pellet was resuspended in 300 mL of lysis buffer (30 mM imidazole pH 7.0 and 150 mM NaCl). Cells were lysed by sonication and cell debris was removed by centrifugation for 30 minutes at 20,000 g at 4° C. […] The clarified lysate was loaded onto a column (XK-26) packed with ProBond Nickel Chelating resin (Invitrogen), pre-equilibrated with 30 mM imidazole pH 7.0 and 150 mM NaCl. After washing to baseline absorbance with the equilibration buffer, the column was developed with a gradient from 30 to 500 mM imidazole pH 7.0. Column fractions containing the RORγ-LBD protein were pooled and concentrated to a volume of 5 mls. The concentrated protein was loaded onto a Superdex 200 column pre-equilibrated with 20 mM Tris-CI pH 7.2 and 200 mM NaCl. The fractions containing the desired RORγ-LBD protein were pooled together.
Purified RORγ-LBD was buffer exchanged by exhaustive dialysis [3 changes of at least 20 volumes (>8000x)] against PBS [100mM NaPhosphate, pH 8 and 150mM NaC1]. […] The modified protein was distributed into aliquots, frozen on dry ice and stored at −80° C. The biotinylated RORγ-LBD was subjected to mass spectrometric analysis to reveal the extent of modification by the biotinylation reagent.
An appropriate amount of Europium labeled Streptavidin was then added to the biotinylated SRC1(2) solution in a tube to give a final concentration of 10 nM. The tube was inverted gently and incubated for 15 minutes at room temperature. Twenty-fold excess biotin from the 10 mM stock solution was added and the tube was inverted gently and incubated for 10 minutes at room temperature.
Preparation of APC labeled RORγ-LBD: biotinylated RORγ-LBD solution was prepared by adding an appropriate amount of biotinylated RORγ-LBD from the stock solution to a buffer containing 10 mM of freshly added DTT from solid to give a final concentration of 40 nM. An appropriate amount of APC labeled Streptavidin was then added to the biotinylated RORγ-LBD solution in a tube to give a final concentration of 20 nM. The tube was inverted gently and incubated for 15 minutes at room temperature. Twenty-fold excess biotin from the 10 mM stock solution was then added and the tube was inverted gently and incubated for 10 minutes at room temperature.
The reaction mixtures were incubated for 5 minutes. […] The plates were incubated for lhr and then read on ViewLux in Lance mode for EU/APC.

[3] = test system: Mouse CD4+ cells; assay: Th17 cell differentiation assay (IL-17 ELISA); type: cell-based
Method: Mouse CD4+cells were purified using the CD4+ T Cell Isolation II Kit according to manufacturer's instructions (Miltenyi Biotec). 96 well plates were pre-coated with anti-mCD3 antibody. Un-coated wells were used as controls. CD4+ Cells were resuspended in RPMI 1640 complete medium and were added to the 96-well plates. Cytokine cocktail and the compound were then added to the wells. Antibodies and cytokines (all from R&D Systems) used in the assay were selected from the following: anti-mCD3; anti-mCD28; anti-mIFNγ; anti-mIL4; mIL-6; mIL-23; mIL-1β; hTGF-β1. The culture was incubated at 37° C. for 3 days and supernatants were collected for ELISA. The IL-17 ELISAs were performed according to manufacturer's instructions (R&D Systems). The results were analyzed using Prism software with non-linear regression to determine pIC50.

[4] = In vitro percutaneous study (Franz diffusion cells, aqueous cream); type: in vitro ADME, human; details: 1.0% w/w in aqueous cream pH=6, 5 mg/cm^2, human skin from three donors
Excerpt: The in vitro percutaneous study is aimed to predict the level of percutaneous penetration obtained for a compound in a topical formulation for psoriasis. This assay coupled with the intrinsic potency of the compound are used to predict the likelihood of success of a compound to engage the target. The higher the ratio of the percutaneous penetration to the intrinsic potency, the higher the ratio of local skin concentration to the intrinsic potency and therefore the higher the chance of a compound to engage the target in a topical formulation.
The compounds were manufactured in a modified aqueous cream at pH=6.
The study was conducted with dermatomed abdominal human skin sourced from three skin donors using 2 cm2 Franz diffusion cells. The receiving fluid consisted of Bovine serum albumin (4% w/v) in 0.1% w/v sodium azide in Phospate Buffer Saline and was heated at 37° C. in order to obtain 32° C. at the skin surface. The cream formulation was applied on the donor side at a 10 mg dose, i.e. 5 mg/cm^2. The samples taken at the following time points: t=0, 3, 6, 9 and 24 h. The receiver samples were then assayed using a method based upon protein precipitation with acetonitrile followed by LC/MS/MS analysis. The percutaneous flux (in ng/cm^2/hr) was determined using the individual API (in a multiple composition) that had permeated into the receiver compartment over 24 hrs per cm^2.

[5] = 72 h, mean pIC50, IL-17 ELISA, 3 days culture, detection limit of the assay 5, read-out: pIC50 in the Th17 cell differentiation assay (converted)

| SMILES | IC50 [2] [nM] | IC50 [3, 5] [nM] | also measured |
| --- | --- | --- | --- |
| Cc1ccc(C(=O)Nc2cc(Cl)cc(CN3CCN(C(=O)C4CCCC4)[C@@H](C)C3)c2C)cn1 [Example 62, (S)-N-(5-chloro-3-((4-(cyclopentanecarbonyl)-3-methylpiperazin-1-yl)methyl)-2-methylphenyl)-6-methylnicotinamide] |  |  | EAE onset [1]: delay EAE onset |
| Cc1c(NC(=O)c2ccc[nH]c2=O)ccc(F)c1CN1CCN(C(=O)C2CCCC2)[C@@H](C)C1 [Example 129, (S)-N-(3-((4-(cyclopentanecarbonyl)-3-methylpiperazin-1-yl)methyl)-4-fluoro-2-methylphenyl)-2-oxo-1,2-dihydropyridine-3-carboxamide, trifluoroacetic acid salt] |  | > 10000 |  |
| Cc1ccc(C(=O)Nc2cc(F)cc(CN3CCN(C(=O)CC4CCC4)[C@@H](C)C3)c2C)cn1 [Example 163, (S)-N-(3-((4-(2-cyclobutylacetyl)-3-methylpiperazin-1-yl)methyl)-5-fluoro-2-methylphenyl)-6-methylnicotinamide] |  |  | Flux over 24 hrs [4]: 7.73 ng/cm^2/hr; IC50 ([3]; table with percutaneous study, read-out: Th17 cell differentiation assay IC50): 0.0114 µg/mL; IC50 ([3]; table with percutaneous study, read-out: Th17 cell differentiation assay pIC50 (converted)): 25.1 nM |
| Cc1c(CN2CCN(C(=O)C3CC(F)(F)C3)[C@@H](C)C2)cc(F)cc1NC(=O)c1cccc(C#N)c1 [Example 175, (S)-3-cyano-N-(3-((4-(3,3-difluorocyclobutanecarbonyl)-3-methylpiperazin-1-yl)methyl)-5-fluoro-2-methylphenyl)benzamide, trifluoroacetic acid salt] |  |  | EAE onset and clinical score [1]: delay EAE onset and lower clinical score |
| Cc1ccc(C(=O)Nc2cc(F)cc(CN3CCN(C(=O)[C@H]4C[C@@H](C)C4)[C@@H](C)C3)c2C)cn1 [Example 185, N-(5-fluoro-2-methyl-3-(((S)-3-methyl-4-((cis)-3-methylcyclobutanecarbonyl)piperazin-1-yl)methyl)phenyl)-6-methylnicotinamide] | ~79.4 | ~20.9 |  |
| Cc1ccc(C(=O)Nc2cc(F)cc(CN3CCN(C(=O)[C@H]4C[C@H](C)C4)[C@@H](C)C3)c2C)cn1 [Example 186, N-(5-fluoro-2-methyl-3-(((S)-3-methyl-4-((trans)-3-methylcyclobutanecarbonyl)piperazin-1-yl)methyl)phenyl)-6-methylnicotinamide] | ~79.4 | ~37.2 |  |
| Cc1ncc(C(=O)Nc2cc(Cl)cc(CN3CCN(C(=O)[C@H]4C[C@@H](C)C4)[C@@H](C)C3)c2C)cn1 [Example 190, N-(5-chloro-2-methyl-3-(((S)-3-methyl-4-((cis)-3-methylcyclobutanecarbonyl)piperazin-1-yl)methyl)phenyl)-2-methylpyrimidine-5-carboxamide, trifluoroacetic acid salt] | ~158 | ~12.9 | EAE onset [1]: delay EAE onset |
| Cc1ncc(C(=O)Nc2cc(Cl)cc(CN3CCN(C(=O)[C@H]4C[C@H](C)C4)[C@@H](C)C3)c2C)cn1 [Example 191, N-(5-chloro-2-methyl-3-(((S)-3-methyl-4-((trans)-3-methylcyclobutanecarbonyl)piperazin-1-yl)methyl)phenyl)-2-methylpyrimidine-5-carboxamide, trifluoroacetic acid salt] | ~251 | ~26.3 | EAE onset [1]: delay EAE onset |
| Cc1ncc(C(=O)Nc2cc(Cl)cc(CN3CCN(C(=O)C4CCCC4)[C@@H](C)C3)c2C)cn1 [Example 192, (S)-N-(5-chloro-3-((4-(cyclopentanecarbonyl)-3-methylpiperazin-1-yl)methyl)-2-methylphenyl)-2-methylpyrimidine-5-carboxamide] |  | ~7.94 | EAE onset and clinical score [1]: delay EAE onset and lower clinical score |

Further lines, with some results ahead:

| IC50 [2] [nM] | IC50 [3, 5] [nM] | SMILES | also measured |
| --- | --- | --- | --- |
| ~100 | ~31.6 | Cc1ncc(C(=O)Nc2cc(F)cc(CN3CCN(C(=O)C4CCCC4)[C@@H](C)C3)c2C)cn1 [Example 20, (S)-N-(3-((4-(cyclopentanecarbonyl)-3-methylpiperazin-1-yl)methyl)-5-fluoro-2-methylphenyl)-2-methylpyrimidine-5-carboxamide] | EAE onset and clinical score [1]: delay EAE onset and lower clinical score |
| ~200 | ~83.2 | Cc1ccc(C(=O)Nc2cc(Cl)cc(CN3CCN(C(=O)CC4CC4)[C@@H](C)C3)c2C)cn1 [Example 184, (S)-N-(5-chloro-3-((4-(2-cyclopropylacetyl)-3-methylpiperazin-1-yl)methyl)-2-methylphenyl)-6-methylnicotinamide] | EAE onset and clinical score [1]: delay EAE onset and lower clinical score |
| ~126 | ~3.16 | Cc1cc(C(=O)Nc2cc(Cl)cc(CN3CCN(C(=O)C4CCCC4)[C@@H](C)C3)c2C)ccn1 [Example 187, (S)-N-(5-chloro-3-((4-(cyclopentanecarbonyl)-3-methylpiperazin-1-yl)methyl)-2-methylphenyl)-2-methylisonicotinamide] |  |
| ~63.1 | ~8.71 | Cc1ccc(C(=O)Nc2cc(Cl)cc(CN3CCN(C(=O)[C@H]4C[C@H](C)C4)[C@@H](C)C3)c2C)cn1 [Example 188, N-(5-chloro-2-methyl-3-(((S)-3-methyl-4-((trans)-3-methylcyclobutanecarbonyl)piperazin-1-yl)methyl)phenyl)-6-methylnicotinamide] |  |
| ~50.1 | ~5.13 | Cc1ccc(C(=O)Nc2cc(Cl)cc(CN3CCN(C(=O)[C@H]4C[C@@H](C)C4)[C@@H](C)C3)c2C)cn1 [Example 189, N-(5-chloro-2-methyl-3-(((S)-3-methyl-4-((cis)-3-methylcyclobutanecarbonyl)piperazin-1-yl)methyl)phenyl)-6-methylnicotinamide] |  |
